From ChEMBL document CHEMBL4483862, “Open-source discovery of chemical leads for next-generation chemoprotective antimalarials” (2018)

Tested on: Plasmodium berghei
Test: Luciferase/luciferin-expressing antifolate-resistant parasites were used to infect a culture of HepG2 cells that were pre-incubated with compounds. Infected hepatocytes emit light due to the luciferase reaction. Assay results are presented as the percent inhibition of light emission compared to control. […]
Format: functional
Details: sporozoite; for IC50: read-out: LUCIFERASE INFECTION ASSAY - IC50; for IC90: read-out: LUCIFERASE INFECTION ASSAY - IC90

CN(CC(=O)Nc1ccc(Cl)c(Cl)c1)C(=O)C12CC3CC(CC(C3)C1)C2
IC50: > 10 µM
IC90: > 10 µM

Cc1cc(C(=O)COC(=O)c2[nH]nc3ccccc23)c(C)n1CC1CCCO1 (configuration not stated)
IC50: 0.417 µM
IC90: 0.491 µM

O=C(NCc1ccc(-c2nc3ccccc3s2)cc1)c1ccco1
IC50: 2.81 µM
IC90: 3.45 µM

CN(C)CCNCc1ccc(OC2CCCC2)cc1
IC50: > 11 µM
IC90: > 11 µM

CN(C)C(S)=Nc1ccc(Cl)cc1
IC50: > 15.4 µM
IC90: > 15.4 µM

CCOc1ccc(C(=O)CCC(=O)O)cc1
IC50: > 14.8 µM
IC90: > 14.8 µM

CSC1=C(C#N)C(=O)NC(c2ccc(Cl)cc2Cl)S1 (configuration not stated)
IC50: > 9.96 µM
IC90: > 9.96 µM

COc1ccc(CC(N)c2csc(NC(=O)Nc3ccccc3Oc3ccccc3)n2)cc1 (configuration not stated)
IC50: > 7.17 µM
IC90: > 7.17 µM

COc1ccc(CC(N)c2csc(NC(=O)c3cc(C(C)(C)C)oc3C)n2)cc1 (configuration not stated)
IC50: 2.91 µM
IC90: 4.39 µM

COc1cccc(Nc2nc(C(N)Cc3ccc(F)cc3)cs2)n1 (configuration not stated)
IC50: > 9.58 µM
IC90: > 9.58 µM

O=C(CN1CCNCC1)N1CCOCC1
IC50: > 15.5 µM
IC90: > 15.5 µM

CCCCCc1c(C)nc(-c2ccccn2)nc1O
IC50: > 12.8 µM
IC90: > 12.8 µM

CCn1c2ccccc2c2cc(N)ccc21
IC50: > 10 µM
IC90: > 10 µM

CCOC(=O)c1c(C)nn(-c2ccc(NC(=O)Nc3ccc(Cl)cc3)cc2)c1C
IC50: > 7.99 µM
IC90: > 7.99 µM

CSc1ccc(-c2cn3c(-c4cccc(CO)c4)cnc3cn2)cc1
IC50: > 9.5 µM
IC90: > 9.5 µM

COc1ccc2nc3[nH]nc(N)c3cc2c1
IC50: > 10 µM
IC90: > 10 µM

CN(C)C(=O)c1ccc(-c2cc3c(Nc4cccc(N(C)C)c4)nccc3n2C)cc1
IC50: > 10 µM
IC90: > 10 µM

N#CCSC1=CC(=O)CC(c2ccccc2)S1 (configuration not stated)
IC50: > 12.6 µM
IC90: > 12.6 µM

Cc1ccc(Sc2ncnc3sccc23)cc1
IC50: > 12.8 µM
IC90: > 12.8 µM

Cc1sc2nc(CN3CCOCC3)nc(NCCOc3ccccc3)c2c1C
IC50: > 10 µM
IC90: > 10 µM

CCCc1cc(N2CCN(C)CC2)n2ncc(-c3ccccc3)c2n1
IC50: 2.71 µM
IC90: > 9.84 µM

CC(C)(C)c1ccccc1NC(=O)Nc1nc(C(N)Cc2ccccc2)cs1 (configuration not stated)
IC50: 4.59 µM
IC90: 7.79 µM

NC(Cc1ccccc1)c1csc(NC(=O)NC(c2ccccc2)c2ccccc2)n1 (configuration not stated)
IC50: > 7.7 µM
IC90: > 7.7 µM

Cc1cc(NCc2cccnc2)n2nc(C(F)(F)F)c(-c3ccccc3)c2n1
IC50: 7.83 µM
IC90: > 8.61 µM

Clc1ccc(-c2csc(NCC3CCCO3)n2)cc1 (configuration not stated)
IC50: > 11.2 µM
IC90: > 11.2 µM

O=C(Nc1ccc(F)cc1)c1cccc(C(=O)Nc2ccc(F)cc2)n1
IC50: 3.45 µM
IC90: 5.69 µM

Cc1nc(-c2cccs2)sc1NC(=O)Nc1ccc(Cl)cc1
IC50: > 9.43 µM
IC90: > 9.43 µM

C=CCSc1nnc(-c2ccco2)n1-c1ccc(OCc2ccccc2)cc1
IC50: > 8.47 µM
IC90: > 8.47 µM

NNC(=O)c1cc2ccc3ccccc3c2s1
IC50: > 13.6 µM
IC90: > 13.6 µM

Clc1cccc(-c2cc3c(Nc4ccccn4)nccc3[nH]2)c1
IC50: 6.48 µM
IC90: 6.66 µM

CC(=O)Oc1cc2sc(=O)oc2c2ccccc12
IC50: > 12.7 µM
IC90: > 12.7 µM

N#Cc1ccc(-c2csc(CS(=O)(=O)Cc3cccc(C(F)(F)F)c3)n2)cc1
IC50: > 7.81 µM
IC90: > 7.81 µM

O=C(COC(=O)c1ccc2ccccc2n1)NCCc1ccccc1
IC50: > 10 µM
IC90: > 10 µM

Cc1csc(Sc2ncnc3c2cnn3C)n1
IC50: > 2 µM
IC90: > 2 µM

CCc1ccc(C2NC(=O)NC(C)=C2C(=O)c2ccccc2)cc1 (configuration not stated)
IC50: > 10 µM
IC90: > 10 µM

CCOC(=O)c1cnc(NNC(=O)c2ccc(Cl)cc2Cl)nc1C(F)(F)F
IC50: > 7.8 µM
IC90: > 7.8 µM

CSc1nccc(-c2sc3scc(C)c3c2C)n1
IC50: > 11.3 µM
IC90: > 11.3 µM

FC(F)(F)c1ccnc(N2CCN(c3ncnc4scc(-c5ccccc5)c34)CC2)n1
IC50: > 7.46 µM
IC90: > 7.46 µM

CCOC(=O)c1[nH]c2ccccc2c1-c1ccccc1
IC50: > 12.4 µM
IC90: > 12.4 µM

COc1ccccc1-c1cc2c(Nc3ccc4c(c3)OCCO4)nccc2n1C
IC50: 2.39 µM
IC90: 4.78 µM

O=S(=O)(c1cc(C(F)(F)F)ccn1)c1cccs1
IC50: > 11.3 µM
IC90: > 11.3 µM

CC(C)Oc1ccc(Nc2nccc3[nH]c(-c4ccsc4)cc23)cc1
IC50: 2.25 µM
IC90: 4.09 µM

Cc1nc2nc(-c3ccccc3)nn2c(N2CCCC2)c1Cc1ccccc1
IC50: 3.28 µM
IC90: > 8.93 µM

CSc1sc(-c2ccon2)c(-c2cccs2)c1C#N
IC50: > 10.8 µM
IC90: > 10.8 µM

O=C(O)COc1ccccc1CS(=O)(=O)c1ccc(Cl)cc1
IC50: > 9.68 µM
IC90: > 9.68 µM

O=C(NNC(=O)c1cccs1)c1cncc(C#Cc2ccccc2)c1
IC50: > 9.5 µM
IC90: > 9.5 µM

CCC(CO)NC(=S)Nc1cc(C(F)(F)F)cc(C(F)(F)F)c1 (configuration not stated)
IC50: > 9.16 µM
IC90: > 9.16 µM

Cc1ccc(S(=O)(=O)CCN2CCC(C#N)CC2)cc1
IC50: > 11.3 µM
IC90: > 11.3 µM

O=c1ccn(-c2ccc(Cl)cc2)nc1-c1ccnc(-c2ccccc2)n1
IC50: > 9.15 µM
IC90: > 9.15 µM

CC1=C(C(=O)c2ccc(Cl)cc2)C(c2ccc(C(F)(F)F)cc2)NC(=O)N1 (configuration not stated)
IC50: > 10 µM
IC90: > 10 µM

CC(C)(C)c1cc(C(=O)Nc2nc(C(N)CCc3ccccc3)cs2)n(Cc2ccccc2)n1 (configuration not stated)
IC50: > 6.97 µM
IC90: > 6.97 µM

NC(Cc1ccccc1)c1csc(NC(=O)Nc2ccccc2-c2ccccc2)n1 (configuration not stated)
IC50: > 7.96 µM
IC90: > 7.96 µM

Cc1cccc(N2CCN(C(=O)c3nn(-c4ccccc4)c(=O)c4ccccc34)CC2)c1C
IC50: > 10 µM
IC90: > 10 µM

c1ccc(-c2cc3c(Nc4ccccn4)nccc3[nH]2)cc1
IC50: > 10 µM
IC90: > 10 µM

Cc1ccc2nc(Cn3cc(C(F)(F)F)cc(Cl)c3=O)cn2c1
IC50: > 10 µM
IC90: > 10 µM

CN(C)C(=O)c1nnsc1S(=O)(=O)c1ccc(Cl)cc1
IC50: 8.45 µM
IC90: > 9.95 µM

N=C(NOC(=O)Nc1ccc(OC(F)(F)F)cc1)c1cnccn1
IC50: > 9.67 µM
IC90: > 9.67 µM

Cc1nnc(NC(=O)CN2C(=O)COc3ccc(Cl)cc32)s1
IC50: > 9.74 µM
IC90: > 9.74 µM

CCCCNC(=S)Nc1cc(C(F)(F)F)ccc1N1CCOCC1
IC50: > 10 µM
IC90: > 10 µM

O=C1c2ccccc2O[C@@H](c2ccccc2)[C@H]1O
IC50: > 13.7 µM
IC90: > 13.7 µM

COc1ccc(OC)c(NC(=O)C2(C)CCN2Cc2ccc(C(C)C)cc2)c1 (configuration not stated)
IC50: > 8.63 µM
IC90: > 8.63 µM

CC(N)c1csc(NC(=O)c2cccnc2Oc2ccccc2)n1 (configuration not stated)
IC50: 3.09 µM
IC90: 5.22 µM

CS(=O)(=O)Nc1ccc(C(=N)NOC(=O)Nc2ccc(C(F)(F)F)cc2)cc1
IC50: > 7.93 µM
IC90: > 7.93 µM

Cc1ccc(-c2cc(=O)n(-c3nc4ccccc4[nH]3)[nH]2)cc1
IC50: > 11.4 µM
IC90: > 11.4 µM

COc1ccc(Nc2nccc3[nH]c(-c4ccsc4)cc23)cn1
IC50: > 10 µM
IC90: > 10 µM

Cc1nc2cc3c(cc2n1CC(=O)N1CCN(c2ccccc2)CC1)OCCO3
IC50: > 10 µM
IC90: > 10 µM

CCOc1ccccc1NC(=O)Cc1nc2nc(C)cc(C)n2n1
IC50: > 10.1 µM
IC90: > 10.1 µM

O=C1CC(c2ccccc2Cl)Cc2c1cnn2-c1nc2ccccc2[nH]1 (configuration not stated)
IC50: 3.26 µM
IC90: 3.82 µM

Cc1ccc(NC(=O)c2cc(C(C)(C)C)n(-c3ccccc3)c2C)cc1
IC50: 0.52 µM
IC90: 4.46 µM

COc1cc(OC)c(C2Nc3cc(Cl)c(S(N)(=O)=O)cc3S(=O)(=O)N2)cc1OC (configuration not stated)
IC50: > 10 µM
IC90: > 10 µM

CCCc1cc(NCCCN2CCOCC2)n2nc(C)c(-c3ccccc3)c2n1
IC50: > 8.39 µM
IC90: > 8.39 µM

CCOC(=O)c1c(C)[nH]c(C(=O)COC(=O)c2ccc(CO)cc2)c1C
IC50: > 10 µM
IC90: > 10 µM

CCNC(=O)N1CCc2nc(Nc3cc(C)cc(C)c3)ncc2C1
IC50: > 10.1 µM
IC90: > 10.1 µM

Fc1ccc(-c2csc(NCC3CCCO3)n2)cc1 (configuration not stated)
IC50: > 11.9 µM
IC90: > 11.9 µM

CC(C)N(C(=O)CSc1nnc(-c2cccc(S(=O)(=O)N3CCOCC3)c2)n1-c1ccc(F)cc1)c1ccccc1
IC50: > 10 µM
IC90: > 10 µM

CCN(CC)CC(O)COc1cc(C(F)(F)F)ccn1 (configuration not stated)
IC50: > 11.3 µM
IC90: > 11.3 µM

Cc1nn(Cc2ccccc2Cl)c2sc(C(=O)NC3CCN(Cc4ccccc4)CC3)cc12
IC50: > 10 µM
IC90: > 10 µM

CC(C)Oc1cccc(Nc2nccc3[nH]c(-c4cccc(F)c4)cc23)c1
IC50: 1.49 µM
IC90: > 10 µM

CC1CN(c2nc(N)c3c(N)nc4c(c3c2C#N)CC(=O)N4C2CCCC2)CC(C)O1 (configuration not stated)
IC50: > 10 µM
IC90: > 10 µM

OCCNCCNCc1c(OCc2ccccc2F)ccc2ccccc12
IC50: > 8.96 µM
IC90: > 8.96 µM

CCOC(=O)N1CCN(CC(O)COc2ccc3oc4ccccc4c3c2)CC1 (configuration not stated)
IC50: > 10 µM
IC90: > 10 µM

COc1cccc(Nc2nnc(SCC(=O)N(c3ccccc3)C(C)C)s2)c1
IC50: > 10 µM
IC90: > 10 µM

O=C1C=CC(=O)N1c1ccc2c(c1)OCCO2
IC50: > 14.3 µM
IC90: > 14.3 µM

O=C(CSc1nnc(-c2ccco2)n1-c1ccc2c(c1)OCCO2)Nc1cc(Cl)cc(Cl)c1
IC50: > 6.56 µM
IC90: > 6.56 µM

FC(F)(F)c1cccnc1N1CCN(c2ccc(NC(=S)NCc3ccccc3)cn2)CC1
IC50: > 6.98 µM
IC90: > 6.98 µM

O=C(Nc1nc2c(F)cc(F)cc2s1)c1cnccn1
IC50: > 10 µM
IC90: > 10 µM

CC(C)CC(N)c1csc(NC(=O)NC(c2ccccc2)c2ccccc2)n1 (configuration not stated)
IC50: 2.93 µM
IC90: 3.63 µM

Clc1ccc(SCc2nc(N3CCN(c4ncccn4)CC3)c3c4c(sc3n2)CCC4)cc1
IC50: > 10 µM
IC90: > 10 µM

CC(=O)Nc1cccc(Nc2nccc3[nH]c(-c4cccc(C(F)(F)F)c4)cc23)c1
IC50: 0.705 µM
IC90: 2.28 µM

Cc1nn2c(SCC(=O)O)cc(C(C)(C)C)nc2c1-c1ccc(Cl)cc1
IC50: > 8.46 µM
IC90: > 8.46 µM

CC(C)Cc1ccc(C2=Nn3c(nnc3-c3cccs3)SC2C)cc1 (configuration not stated)
IC50: > 7.34 µM
IC90: > 7.34 µM
